From patent US20240301023A1 (priority 2020, published 2024)
Like-named read-outs stand apart in the source and are kept apart here. Square brackets hold non-standard residues; d marks the D form. Ends that are not written are not given here. Peptide text beside a SMILES is read from it. Phe(4-NO2) = N[C@@H](Cc1ccc([N+](=O)[O-])cc1)C(=O)O; Phe(4-Cl) = N[C@@H](Cc1ccc(Cl)cc1)C(=O)O; Phe(4-F) = N[C@@H](Cc1ccc(F)cc1)C(=O)O; NMeR = CN[C@@H](CCCNC(=N)N)C(=O)O; Aoc = NCCCCCCCC(=O)O; Sar = CNCC(=O)O

Assays:
[1] = target: Delta opioid receptor (DOR) (Homo sapiens, UniProt P41143); test: cell-based; format: cell-based
[2] = target: Mu opioid receptor (MOR) (Homo sapiens, UniProt P35372); test: cell-based; format: cell-based
[3] = target: Kappa opioid receptor (KOR) (Homo sapiens, UniProt P41145); test: cell-based; format: cell-based; conditions: for EC50: read-out: Activity (EC50, nM) KOR
[4] = Stability in rat plasma; format: in vitro ADME; conditions: 37° C., 100 μM peptide; for half-life at 100 µM: both sexes, Wistar
Method: Stability in plasma was assessed in rat plasma. Plasma was collected in-house from adult mixed-gender Wistar rats, prepared using 2% EDTA as per standard practice. Peptides were added to the rat plasma samples at 37° C. in a water bath with final concentrations of 100 μM (1:9 peptide in water:plasma). The assay was then carried out in the same manner as the assay in bovine trypsin.

[5] = target: T1, bovine pancreatic trypsin (Bos taurus, UniProt P00760); test: Stability in bovine trypsin; format: in vitro ADME; conditions: bovine pancreatic trypsin 2.5 μg/mL, NH4HCO3 buffer pH 8-8.5, 37° C., 100 μM peptide; for half-life: isolated enzyme trypsin; for half-life at 100 µM: bovine pancreatic trypsin solution
T1 construct: from tissue; host or cells: bovine pancreas
T1 sequence (P00760 24-246): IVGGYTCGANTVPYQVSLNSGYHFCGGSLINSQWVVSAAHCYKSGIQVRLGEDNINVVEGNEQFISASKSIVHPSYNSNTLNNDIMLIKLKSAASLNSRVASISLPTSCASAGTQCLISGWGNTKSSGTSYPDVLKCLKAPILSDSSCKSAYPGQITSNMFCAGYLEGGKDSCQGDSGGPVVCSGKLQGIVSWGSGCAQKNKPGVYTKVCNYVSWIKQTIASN
Method: The stability of the peptides was analysed in typsin, plasma and water. Stability of linear peptides is generally low due to rapid degradation by endogenous peptidases and proteases. While stability in bodily fluids is important, absolute stability may not be prudent or desirable due to potential build-up in vivo leading to adverse side effects, and/or hazards to the environment and recirculation of exceptionally stable compounds in waterways. Thus, compounds that are extremely stable in either plasma or typsin are not generally considered “drug-like”.
Stability in bovine trypsin was analysed for SEQ ID Nos. 2 to 7 and 11 to 17. Peptides were added to trypsin solution (bovine pancreatic trypsin 2.5 μg/mL in NH4HCO3 buffer, pH approximately 8-8.5, 37° C.) in a water bath with final concentrations of 100 μM peptide. A 50 μL sample was taken immediately and precipitated in 150 μL of cold acetonitrile (9:1 acetonitrile:water) This sample became the baseline, or t=0 min sample. The trypsin peptide mixture was immediately returned to the water bath and subsequent 50 μL samples were taken at 5, 10, 15, 30, 60 and 120 min. At each time point, the 50 μL sample was collected and immediately added to cold acetonitrile (ACN). Each sample was vortexed for 30 sec and then centrifuged at room temperature (RT) (13K rpm, 5 min). 150 μL of the supernatant was taken and directly place in a glass HPLC vial for LCMS analysis.

[6] = target: KOR (Homo sapiens, UniProt P41145); test: cell-based; format: cell-based
[7] = target: KOPr (Homo sapiens, UniProt P41145); format: cell-based
[8] = read-out: Activity (EC50, nM) MOR
[9] = read-out: Activity (EC50, nM) DOR

Sequence of Kappa opioid receptor (KOR) (P41145 whole entry): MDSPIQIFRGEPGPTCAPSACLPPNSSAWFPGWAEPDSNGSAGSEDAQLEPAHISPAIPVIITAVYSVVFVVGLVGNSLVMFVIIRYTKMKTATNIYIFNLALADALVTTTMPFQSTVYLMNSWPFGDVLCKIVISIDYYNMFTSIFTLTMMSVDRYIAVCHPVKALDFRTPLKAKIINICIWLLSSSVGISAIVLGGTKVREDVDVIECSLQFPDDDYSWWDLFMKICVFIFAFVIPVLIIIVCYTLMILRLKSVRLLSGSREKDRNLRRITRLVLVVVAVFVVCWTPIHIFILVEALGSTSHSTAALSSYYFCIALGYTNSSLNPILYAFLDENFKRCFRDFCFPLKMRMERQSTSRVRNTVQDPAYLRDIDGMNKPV
Sequence of Mu opioid receptor (MOR) (P35372 whole entry): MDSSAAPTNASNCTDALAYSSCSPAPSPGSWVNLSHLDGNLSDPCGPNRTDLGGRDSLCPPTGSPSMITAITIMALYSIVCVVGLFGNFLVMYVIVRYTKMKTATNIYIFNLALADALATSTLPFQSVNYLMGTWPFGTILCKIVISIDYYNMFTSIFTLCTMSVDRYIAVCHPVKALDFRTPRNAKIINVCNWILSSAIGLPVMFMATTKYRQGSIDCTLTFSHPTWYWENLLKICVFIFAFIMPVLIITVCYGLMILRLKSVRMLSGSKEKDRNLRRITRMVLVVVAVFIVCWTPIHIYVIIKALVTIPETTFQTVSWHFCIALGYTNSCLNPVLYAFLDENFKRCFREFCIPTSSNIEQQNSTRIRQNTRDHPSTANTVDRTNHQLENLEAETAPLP
Sequence of Delta opioid receptor (DOR) (P41143 whole entry): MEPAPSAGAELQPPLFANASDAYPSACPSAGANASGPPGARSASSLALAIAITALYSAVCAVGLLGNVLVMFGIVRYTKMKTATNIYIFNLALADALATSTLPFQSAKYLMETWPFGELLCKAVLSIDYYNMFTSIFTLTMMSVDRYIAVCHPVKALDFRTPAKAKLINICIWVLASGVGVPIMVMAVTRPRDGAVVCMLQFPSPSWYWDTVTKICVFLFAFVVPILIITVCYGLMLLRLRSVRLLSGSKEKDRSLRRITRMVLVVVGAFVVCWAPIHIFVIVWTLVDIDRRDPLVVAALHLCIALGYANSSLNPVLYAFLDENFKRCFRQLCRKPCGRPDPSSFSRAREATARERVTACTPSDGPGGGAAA
Sequence of KOPr (P41145 whole entry): as the sequence (P41145 whole entry) above
Sequence of KOR (P41145 whole entry): as above

2-NH2-Phe-Phe-Leu-Gly-Arg-Arg (FFLGRR; also: 2-NH2 (N-terminal amino modification) on Phe, placement unclear) [SEQ ID NO. 36, reference compound]
cAMP assay DOR 1 μM [1]: no measurable potency | cAMP assay MOR 1 μM [2]: no measurable potency | cAMP assay KOR 1 μM [3]: no measurable potency

CC(C)C[C@H](NC(=O)[C@H](Cc1ccccc1)NC(=O)CN(C)C(=O)[C@@H](N)Cc1ccc(O)cc1)C(=O)N[C@@H](CCCNC(=N)N)C(=O)N[C@H](CCCNC(=N)N)C(N)=O [SEQ ID NO. 3, NH2-Tyr-Sar-Phe-Leu-Arg-DArg-NH2] (H-Y[Sar]FLR[dR]-NH2)
half-life at 100 µM [4]: 1.2 h | Half Life Trypsin [5]: 0.227 h | cAMP assay DOR 1 μM [1]: −2.27 | cAMP assay DOR 10 μM [1]: 2.24 | cAMP assay MOR 1 μM [2]: −0.68 | cAMP assay MOR 10 μM [2]: 2.17 | cAMP assay KOR 1 μM [3]: 27.24 | cAMP assay KOR 10 μM [3]: 43.58

CC(C)C[C@H](NC(=O)[C@H](Cc1ccc([N+](=O)[O-])cc1)NC(=O)CN(C)C(=O)[C@@H](N)Cc1ccc(O)cc1)C(=O)N[C@H](CCCNC(=N)N)C(=O)N[C@@H](CCCNC(=N)N)C(N)=O [SEQ ID NO. 5, NH2-Tyr-Sar-(4-NO2)Phe-Leu-DArg-Arg-NH2] (H-Y[Sar][Phe(4-NO2)]L[dR]R-NH2)
half-life [4]: 0.478 h | Half Life Trypsin [5]: 54.167 h | cAMP assay DOR 1 μM [1]: 0.05 | cAMP assay DOR 10 μM [1]: 2.02 | cAMP assay MOR 1 μM [2]: −0.05 | cAMP assay MOR 10 μM [2]: 4.32 | cAMP assay KOR 1 μM [3]: 33.44 | cAMP assay KOR 10 μM [3]: 43.14

CC(C)C[C@H](NC(=O)[C@H](Cc1ccccc1)NC(=O)CN(C)C(=O)[C@@H](N)Cc1ccc(O)cc1)C(=O)N[C@H](CCCNC(=N)N)C(=O)N[C@@H](CCCNC(=N)N)C(N)=O [SEQ ID NO. 6, NH2-Tyr-Sar-Phe-Leu-DArg-Arg-NH2] (H-Y[Sar]FL[dR]R-NH2)
half-life [5]: 21.1 h | cAMP assay DOR 1 μM [1]: −0.03 | cAMP assay DOR 10 μM [1]: 2.25 | cAMP assay MOR 1 μM [2]: 1.04 | cAMP assay MOR 10 μM [2]: 7.84 | cAMP assay KOR 1 μM [3]: 14.22 | cAMP assay KOR 10 μM [3]: 35.13

CC(C)C[C@H](NC(=O)[C@H](Cc1ccccc1)NC(=O)CN(C)C(=O)[C@@H](N)Cc1ccc(O)cc1)C(=O)N[C@H](CCCNC(=N)N)C(=O)N[C@H](CCCNC(=N)N)C(N)=O [SEQ ID NO. 7, NH2-Tyr-Sar-Phe-Leu-DArg-DArg-NH2] (H-Y[Sar]FL[dR][dR]-NH2)
half-life [5]: 9.78 h | cAMP assay DOR 1 μM [1]: −0.68 | cAMP assay DOR 10 μM [1]: 2.53 | cAMP assay MOR 1 μM [2]: 0.13 | cAMP assay MOR 10 μM [2]: 4.19 | cAMP assay KOR 1 μM [3]: 18.27 | cAMP assay KOR 10 μM [3]: 36.03

CC(C)C[C@H](NC(=O)[C@H](Cc1ccc(Cl)cc1)NC(=O)CN(C)C(=O)[C@@H](N)Cc1ccc(O)cc1)C(=O)N[C@@H](CCCNC(=N)N)C(=O)N[C@H](CCCNC(=N)N)C(N)=O [SEQ ID NO. 11, NH2-Tyr-Sar-(4-Cl)Phe-Leu-Arg-DArg-NH2] (H-Y[Sar][Phe(4-Cl)]LR[dR]-NH2)
half-life at 100 µM [5]: 0.257 h | cAMP assay DOR 1 μM [1]: −1.18 | cAMP assay DOR 10 μM [1]: 4.27 | cAMP assay MOR 1 μM [2]: −0.86 | cAMP assay MOR 10 μM [2]: 1.37 | cAMP assay KOR 1 μM [3]: 27.7 | cAMP assay KOR 10 μM [3]: 33.99

CC(C)C[C@H](NC(=O)[C@H](Cc1ccc(F)cc1)NC(=O)CN(C)C(=O)[C@@H](N)Cc1ccc(O)cc1)C(=O)N[C@@H](CCCNC(=N)N)C(=O)N[C@H](CCCNC(=N)N)C(N)=O [SEQ ID NO. 12, NH2-Tyr-Sar-(4-F)Phe-Leu-Arg-DArg-NH2] (H-Y[Sar][Phe(4-F)]LR[dR]-NH2)
half-life at 100 µM [4]: 0.532 h | half-life at 100 µM [5]: 0.228 h | EC50 [2, 8]: 3450 nM | EC50 [3]: 6.7 nM

CC(C)C[C@H](NC(=O)[C@H](Cc1ccc(Cl)cc1)NC(=O)CN(C)C(=O)[C@@H](N)Cc1ccc(O)cc1)C(=O)N(C)[C@@H](CCCNC(=N)N)C(=O)N[C@H](CCCNC(=N)N)C(N)=O [SEQ ID NO. 13, NH2-Tyr-Sar-(4-Cl)Phe-Leu-NMA-DArg-NH2] (H-Y[Sar][Phe(4-Cl)]L[NMeR][dR]-NH2)
half-life at 100 µM [4]: 3.99 h | half-life at 100 µM [5]: 4.6 h | EC50 [1]: > 10000 nM | EC50 [2]: > 10000 nM

CC(C)C[C@H](NC(=O)[C@H](Cc1ccc(F)cc1)NC(=O)CN(C)C(=O)[C@@H](N)Cc1ccc(O)cc1)C(=O)N(C)[C@@H](CCCNC(=N)N)C(=O)N[C@H](CCCNC(=N)N)C(N)=O [SEQ ID NO. 14, NH2-Tyr-Sar-(4-F)Phe-Leu-NMA-DArg-NH2] (H-Y[Sar][Phe(4-F)]L[NMeR][dR]-NH2)
half-life at 100 µM [4]: 5.4 h | half-life at 100 µM [5]: 27.1 h | EC50 [1, 9]: 1660 nM | EC50 [2, 8]: 4000 nM

CC(C)C[C@H](NC(=O)[C@H](Cc1ccc([N+](=O)[O-])cc1)NC(=O)CN(C)C(=O)[C@@H](N)Cc1ccc(O)cc1)C(=O)N(C)[C@@H](CCCNC(=N)N)C(=O)N[C@H](CCCNC(=N)N)C(N)=O [SEQ ID NO. 15, NH2-Tyr-Sar-(4-NO2)Phe-Leu-NMA-DArg-NH2] (H-Y[Sar][Phe(4-NO2)]L[NMeR][dR]-NH2)
EC50 [1, 9]: 1320 nM

CC(C)C[C@H](NC(=O)[C@H](Cc1ccc(Cl)cc1)NC(=O)CN(C)C(=O)[C@@H](N)Cc1ccc(O)cc1)C(=O)N[C@@H](CCCCN)C(=O)N[C@H](CCCNC(=N)N)C(N)=O [SEQ ID NO. 16, NH2-Tyr-Sar-(4-Cl)Phe-Leu-Lys-DArg-NH2] (H-Y[Sar][Phe(4-Cl)]LK[dR]-NH2)
half-life at 100 µM [4]: 1.17 h | Half Life Trypsin [5]: 1.16 h

CC(C)C[C@H](NC(=O)[C@H](Cc1ccc(Cl)cc1)NC(=O)CN(C)C(=O)[C@@H](N)Cc1ccc(O)cc1)C(=O)N[C@@H](CCCNC(=N)N)C(=O)N(C)[C@@H](CCCNC(=N)N)C(N)=O [SEQ ID NO. 17, NH2-Tyr-Sar-(4-Cl)Phe-Leu-Arg-NMA-NH2] (H-Y[Sar][Phe(4-Cl)]LR[NMeR]-NH2)
half-life at 100 µM [4]: 2.9 h | half-life at 100 µM [5]: > 16.7 h

CC(C)C[C@H](NC(=O)[C@H](Cc1ccc([N+](=O)[O-])cc1)NC(=O)CN(C)C(=O)[C@@H](N)Cc1ccc(O)cc1)C(=O)N[C@@H](CCCNC(=N)N)C(=O)N(C)[C@@H](CCCNC(=N)N)C(N)=O [SEQ ID NO. 18, NH2-Tyr-Sar-(4-NO2)Phe-Leu-Arg-NMA-NH2] (H-Y[Sar][Phe(4-NO2)]LR[NMeR]-NH2)
KOR desensitisation (change of cAMP maximal response after pre-treatment) [6]: no sign of desensitisation | EC50 [3]: 1.77 nM | bias factor (β) relative to U50488H [7]: bias towards cAMP | pERK1/2 activity [7]: failed to show any pERK activity

CC[C@H](C)[C@H](NC(=O)[C@@H](CCCNC(=N)N)NC(=O)[C@H](CCCNC(=N)N)NC(=O)[C@H](CC(C)C)NC(=O)[C@H](Cc1ccc(Cl)cc1)NC(=O)CN(C)C(=O)[C@@H](N)Cc1ccc(O)cc1)C(=O)N[C@@H](CCCNC(=N)N)C(N)=O [SEQ ID NO. 20, NH2-Tyr-Sar-(4-Cl)Phe-Leu-Arg-DArg-Ile-Arg-NH2]
reduction in maximal response after pre-treatment ([6]; read-out: reduction in maximal response): ~50% | EC50 [1]: 3580 nM | EC50 [2]: > 10000 nM | cAMP activity in the presence of naloxone, KOR cells [3]: significantly inhibited

CC[C@H](C)[C@H](NC(=O)[C@@H](CCCNC(=N)N)NC(=O)[C@H](CCCNC(=N)N)NC(=O)[C@H](CC(C)C)NC(=O)[C@H](Cc1ccc(Cl)cc1)NC(=O)CN(C)C(=O)[C@@H](N)Cc1ccc(O)cc1)C(=O)N[C@H](CCCNC(=N)N)C(N)=O [SEQ ID NO. 25, NH2-Tyr-Sar-(4-Cl)Phe-Leu-Arg-DArg-Ile-DArg-NH2]
EC50 [1]: > 10000 nM | EC50 [2]: 1610 nM

CC(C)C[C@H](NC(=O)[C@H](Cc1ccc(Cl)cc1)NC(=O)CN(C)C(=O)[C@@H](N)Cc1ccc(O)cc1)C(=O)N[C@@H](CCCNC(=N)N)C(=O)N[C@H](CCCNC(=N)N)C(=O)NCCCCCCCC(=O)O [SEQ ID NO. 28, NH2-Tyr-Sar-(4-Cl)Phe-Leu-Arg-DArg-C7H14-COOH] (H-Y[Sar][Phe(4-Cl)]LR[dR][Aoc]-OH)
EC50 [1]: > 10000 nM | EC50 [2]: > 10000 nM
